According to patent US20250312462A1, “PAK1 DEGRADERS AND METHODS OF USE THEREOF” (INSTITUTE FOR CANCER RESEARCH D/B/A THE RESEARCH INSTITUTE …, priority 2022, published 2025):
Read-outs that look alike come from different tables or passages of the source.

Key:
PAK4 = PAK4 (Homo sapiens, UniProt O96013); assay: Z'-LYTE FRET kinase inhibition assay; format: biochemical; set-up: purchased Invitrogen
Description: […]. […] […].

PAK2 [1] = target: T1, PAK2 (Homo sapiens, UniProt Q13177); assay: Z'-LYTE FRET kinase inhibition assay; format: biochemical; set-up: PAK2 (full length); purchased Invitrogen PV4565
Procedure: The activity/inhibition of human recombinant PAK1 (kinase domain) or PAK2 (full length) was determined by measuring the phosphorylation of a FRET peptide substrate (Ser/Thr19) labeled with Coumarin and Fluorescein using Z′-LYTE™ assay (Invitrogen). The 10 μL assay mixtures contained 50 mM HEPES (pH 7.5), 0.01% Brij-35, 10 mM MgCl2, 1 mM EGTA, 2 μM FRET peptide substrate, and PAK enzyme (20 pM PAK1; 50 pM PAK2). Incubations were carried out at 22° C. in black polypropylene 384-well plates (Corning Costar). Prior to the assay, enzyme, FRET peptide substrate and serially diluted test compounds were preincubated together in assay buffer (7.5 μL) for 10 minutes, and the assay was initiated by the addition of 2.5 μL assay buffer containing 4×ATP (160 μM PAK1; 480 μM PAK2). Following the 60-minute incubation, the assay mixtures were quenched by the addition of 5 μL of Z′-LYTE™ development reagent, and 1 hour later the emissions of Coumarin (445 nm) and Fluorescein (520 nm) were determined after excitation at 400 nm using an Envision plate reader (Perkin Elmer). […].

PAK1 [2] = target: T2, PAK1 (Homo sapiens, UniProt Q13153); assay: Z'-LYTE FRET kinase inhibition assay; format: biochemical; set-up: human recombinant PAK1 (kinase domain); purchased Invitrogen PV2830; details: for PAK1 inhibitory activity and selectivity of conjugate: vs PAK2 and PAK4
Procedure: The activity/inhibition of human recombinant PAK1 (kinase domain) or PAK2 (full length) was determined by measuring the phosphorylation of a FRET peptide substrate (Ser/Thr19) labeled with Coumarin and Fluorescein using Z′-LYTE™ assay (Invitrogen). The 10 μL assay mixtures contained 50 mM HEPES (pH 7.5), 0.01% Brij-35, 10 mM MgCl2, 1 mM EGTA, 2 μM FRET peptide substrate, and PAK enzyme (20 pM PAK1; 50 pM PAK2). Incubations were carried out at 22° C. in black polypropylene 384-well plates (Corning Costar). […] Following the 60-minute incubation, the assay mixtures were quenched by the addition of 5 μL of Z′-LYTE™ development reagent, and 1 hour later the emissions of Coumarin (445 nm) and Fluorescein (520 nm) were determined after excitation at 400 nm using an Envision plate reader (Perkin Elmer).
Target sequence in this assay (Q13153 270-521 limits assumed): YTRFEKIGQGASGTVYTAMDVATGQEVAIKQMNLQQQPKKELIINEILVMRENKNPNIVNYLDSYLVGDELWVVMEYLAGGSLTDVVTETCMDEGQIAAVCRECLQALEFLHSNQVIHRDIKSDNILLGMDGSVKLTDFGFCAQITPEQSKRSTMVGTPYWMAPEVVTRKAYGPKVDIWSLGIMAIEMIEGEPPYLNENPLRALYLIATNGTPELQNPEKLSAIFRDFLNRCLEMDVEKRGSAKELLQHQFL

MCF7 cells = assay: Cell proliferation, MTT assay; format: cell-based; details: for Effect on cell proliferation: MCF7 cells; for EC50: Homo sapiens, MCF7, read-out: EC50, anti-proliferative, MCF7 cells
Procedure: (§1) Cell proliferation was assessed by MTT assay.
(§2) Cell viability was measured by MTT assay and the half maximal inhibitory concentration (IC50) was calculated using GraphPad Prism. Triplicates were performed for each sample and medium alone was used as a blank.
(§3) The anti-proliferative effects of PAK1 degradation and inhibition were evaluated.

OVCAR3 cells = assay: Cell proliferation, MTT assay; format: cell-based; details: for Effect on cell proliferation: OVCAR3 cells; for EC50: Homo sapiens, OVCAR-3, read-out: EC50, anti-proliferative, OVCAR3 cells
Procedure: […]. Cell proliferation was assessed by MTT assay. […].
Cells were plated at 2×10^3 cells per well in 96-well plates overnight and treated with various concentrations of Pak degraders for 72 hours. Cell viability was measured by MTT assay and the half maximal inhibitory concentration (IC50) was calculated using GraphPad Prism. Triplicates were performed for each sample and medium alone was used as a blank.
The anti-proliferative effects of PAK1 degradation and inhibition were evaluated. […]. […] […]. […] […].

PAK1 [3] = target: T2, PAK1; assay: PAK1 degradation in MCF7 and OVCAR3 cells, immunoblot; format: cell-based; set-up: endogenous in cells; host or cells: MCF7, OVCAR3; details: MCF7 and OVCAR3 cells
Procedure: Protein lysates were harvested at the times specified.
Cell lysates were obtained by centrifugation at 13,500 rpm for 15 minutes at 4° C. BCA protein assay (Thermo Scientific) was used to determine protein concentration then equal amounts of total proteins were separated by SDS-PAGE (Bio-Rad) and transferred to PVDF membrane (Thermo Scientific) at 100V for 2 hours. Membranes were blocked in 5% (w/v) non-fat dry milk in tris-buffered saline with 0.1% Tween-20 (TBS-T) for 1 hour and incubated with primary antibody at 4° C. for overnight. Membranes were washed with TBS-T on the next day and incubated with HRP-conjugated secondary antibodies (Millipore) at room temperature for 1 hour and exposed to films after washing.
Target sequence in this assay (Q13153 whole entry, the tested form may be a part): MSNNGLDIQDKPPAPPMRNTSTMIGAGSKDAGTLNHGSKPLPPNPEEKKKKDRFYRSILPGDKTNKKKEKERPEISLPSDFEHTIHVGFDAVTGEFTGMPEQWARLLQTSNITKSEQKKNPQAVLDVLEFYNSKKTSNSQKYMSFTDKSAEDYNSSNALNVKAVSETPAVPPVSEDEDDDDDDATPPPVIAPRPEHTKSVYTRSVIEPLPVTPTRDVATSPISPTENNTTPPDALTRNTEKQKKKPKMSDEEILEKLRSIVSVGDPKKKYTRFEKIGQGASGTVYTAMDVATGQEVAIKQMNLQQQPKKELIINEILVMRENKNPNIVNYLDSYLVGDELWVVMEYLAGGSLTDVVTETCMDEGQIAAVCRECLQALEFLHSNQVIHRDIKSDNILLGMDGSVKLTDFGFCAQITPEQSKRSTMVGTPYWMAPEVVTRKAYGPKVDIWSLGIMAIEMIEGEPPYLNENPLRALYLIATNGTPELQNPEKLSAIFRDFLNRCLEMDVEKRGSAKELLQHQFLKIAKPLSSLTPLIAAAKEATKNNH

PAK2 [4] = target: T1, PAK2; assay: PAK2 degradation in MCF7 and OVCAR3 cells, immunoblot; format: cell-based; set-up: due to their high expression of both PAK1 and PAK2; endogenous in cells; host or cells: MCF7, OVCAR3
Procedure: […]. Cells were incubated overnight then treated with various concentrations of Pak degraders alone or together with bortezomib or lenalidomide for 24 hours. Protein lysates were harvested at the times specified.
Cells were washed once in PBS and lysed in RIPA buffer (50 mM Tris-HCl, 150 mM NaCl, 0.25% (w/v) sodium deoxycholate, 1% (w/v) NP-40, pH 7.5) containing protease inhibitor cocktail (Roche) and phosphatase inhibitor cocktail (Roche) for 30 minutes on ice. Cell lysates were obtained by centrifugation at 13,500 rpm for 15 minutes at 4° C. BCA protein assay (Thermo Scientific) was used to determine protein concentration then equal amounts of total proteins were separated by SDS-PAGE (Bio-Rad) and transferred to PVDF membrane (Thermo Scientific) at 100V for 2 hours. Membranes were blocked in 5% (w/v) non-fat dry milk in tris-buffered saline with 0.1% Tween-20 (TBS-T) for 1 hour and incubated with primary antibody at 4° C. for overnight. […]
After verifying that BJG-05-039 retained specificity for PAK1, its degradation activity in cells was characterized. First, the PAK1 degrader was evaluated in the breast cancer cell line MCF7 and the ovarian cancer cell line OVCAR3 due to their high expression of both PAK1 and PAK2 and their known dependence on PAK1 (Prudnikova, et al. (2016) Oncogene 35:2178-2185; Shrestha, et al. (2012) Oncogene 31:3397-3408). […]

Hey A8 cells = assay: Cell proliferation, MTT assay; format: cell-based; details: HEY A8, read-out: EC50, anti-proliferative
Procedure: as §1, §2, §3

OMM1 cells = assay: Cell proliferation, MTT assay; format: cell-based; details: OMM-1, read-out: EC50, anti-proliferative
Procedure: as §1, §2, §3

[5] = cited from earlier work
[6] = cited from earlier work; remark: listed apart in the source

PAK4, sequence (O96013 whole entry): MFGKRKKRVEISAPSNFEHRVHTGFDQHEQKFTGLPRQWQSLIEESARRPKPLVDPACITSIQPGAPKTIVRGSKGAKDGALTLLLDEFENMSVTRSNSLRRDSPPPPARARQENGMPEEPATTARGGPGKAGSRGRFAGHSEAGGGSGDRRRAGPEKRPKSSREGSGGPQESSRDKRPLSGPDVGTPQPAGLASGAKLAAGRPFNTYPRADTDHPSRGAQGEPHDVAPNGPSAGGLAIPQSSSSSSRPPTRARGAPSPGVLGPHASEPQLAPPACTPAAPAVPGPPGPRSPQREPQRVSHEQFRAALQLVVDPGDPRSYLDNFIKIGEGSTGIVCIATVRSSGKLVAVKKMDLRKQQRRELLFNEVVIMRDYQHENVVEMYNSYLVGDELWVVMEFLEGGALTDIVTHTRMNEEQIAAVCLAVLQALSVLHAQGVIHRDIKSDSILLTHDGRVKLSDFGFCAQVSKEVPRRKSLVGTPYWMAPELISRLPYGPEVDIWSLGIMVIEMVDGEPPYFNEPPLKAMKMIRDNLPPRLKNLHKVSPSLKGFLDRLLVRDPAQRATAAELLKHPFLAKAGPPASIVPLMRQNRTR
T1 sequence (Q13177 whole entry, the tested form may be a part): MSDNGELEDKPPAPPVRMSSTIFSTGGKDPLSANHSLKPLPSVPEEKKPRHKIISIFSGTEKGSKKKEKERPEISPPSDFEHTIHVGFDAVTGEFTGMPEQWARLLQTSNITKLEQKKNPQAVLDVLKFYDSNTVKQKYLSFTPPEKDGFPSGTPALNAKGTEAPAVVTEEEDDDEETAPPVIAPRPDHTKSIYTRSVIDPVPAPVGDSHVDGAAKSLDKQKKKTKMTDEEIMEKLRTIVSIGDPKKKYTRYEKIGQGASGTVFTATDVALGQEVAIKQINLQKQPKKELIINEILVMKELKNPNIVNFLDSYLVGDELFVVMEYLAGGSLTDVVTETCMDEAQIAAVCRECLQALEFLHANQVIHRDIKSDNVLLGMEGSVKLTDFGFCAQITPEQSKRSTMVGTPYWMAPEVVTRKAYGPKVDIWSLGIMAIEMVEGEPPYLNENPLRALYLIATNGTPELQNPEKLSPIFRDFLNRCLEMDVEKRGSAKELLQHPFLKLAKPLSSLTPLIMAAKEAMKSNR

IC50 (PAK4)	IC50 (PAK2 [1])	IC50 (PAK1 [2])	SMILES	other results
0.152 µM	0.724 µM	0.432 µM	O=C1CCC(N2C(=O)c3cccc(NCCOCCOCCC(=O)N4CC[C@H](NC5=Nc6cc(F)ccc6N(CC(F)F)c6ccc(Cl)cc65)C4)c3C2=O)C(=O)N1 (some centres unmarked) [BJG-05-014]	PAK1 inhibitory activity and selectivity of conjugate (PAK1 [2]): retained PAK1 inhibitory activity and selectivity
> 1 µM	> 3.33 µM	> 1.11 µM	O=C1CCC(N2C(=O)c3cccc(NCCCCCCC(=O)N4CC[C@H](NC5=Nc6cc(F)ccc6N(CC(F)F)c6ccc(Cl)cc65)C4)c3C2=O)C(=O)N1 (some centres unmarked) [BJG-05-017]	
> 10 µM	> 10 µM	> 3.33 µM	O=C(COc1cccc2c1C(=O)N(C1CCC(=O)NC1=O)C2=O)NCCCCCCC(=O)N1CC[C@H](NC2=Nc3cc(F)ccc3N(CC(F)F)c3ccc(Cl)cc32)C1 (some centres unmarked) [BJG-05-018]	
> 10 µM	> 10 µM	6.3 µM	O=C1CCC(N2C(=O)c3cccc(NCCCC(=O)N4CC[C@H](NC5=Nc6cc(F)ccc6N(CC(F)F)c6ccc(Cl)cc65)C4)c3C2=O)C(=O)N1 (some centres unmarked) [BJG-05-019]	
> 10 µM	> 10 µM	> 10 µM	Cc1ncsc1-c1ccc([C@H](C)NC(=O)C2C[C@@H](O)CN2C(=O)[C@@H](NC(=O)CCCCCCCC(=O)N2CC[C@H](NC3=Nc4cc(F)ccc4N(CC(F)F)c4ccc(Cl)cc43)C2)C(C)(C)C)cc1 (some centres unmarked) [BJG-05-020]	
3.86 µM	6.75 µM	1.49 µM	O=C1CCC(N2C(=O)c3cccc(NCCOCCOCCNC(=O)N4CC[C@H](NC5=Nc6cc(F)ccc6N(CC(F)F)c6ccc(Cl)cc65)C4)c3C2=O)C(=O)N1 (some centres unmarked) [BJG-05-022]	
> 10 µM	> 10 µM	0.594 µM	O=C1CCC(N2C(=O)c3cccc(NCCCCCNC(=O)N4CC[C@H](NC5=Nc6cc(F)ccc6N(CC(F)F)c6ccc(Cl)cc65)C4)c3C2=O)C(=O)N1 (some centres unmarked) [BJG-05-027]	PAK1 inhibitory activity and selectivity of conjugate (PAK1 [2]): retained PAK1 inhibitory activity and selectivity
		0.0325 µM	Cc1ccc(CO)cc1N(Cc1ccccc1C#N)c1nc(Nc2ccc(N3CCN(CCOCCOCCNc4cccc5c4C(=O)N(C4CCC(=O)NC4=O)C5=O)CC3)c(S(C)(=O)=O)c2)ncc1F (centres unmarked) [BJG-05-093, 2-(((2-((4-(4-(2-(2-(2-((2-(2,6-Dioxopiperidin-3-yl)-1,3-dioxoisoindolin-4-yl)amino)ethoxy)ethoxy)ethyl)piperazin-1-yl)-3-(methylsulfonyl)phenyl)amino)-5-fluoropyrimidin-4-yl)(5-(hydroxymethyl)-2-methylphenyl)amino)methyl)benzonitrile]	
		0.103 µM	Cc1ccc(CO)cc1N(Cc1ccccc1C#N)c1nc(Nc2ccc(N3CCN(C(=O)CCOCCOCCNc4cccc5c4C(=O)N(C4CCC(=O)NC4=O)C5=O)CC3)c(S(C)(=O)=O)c2)ncc1F (centres unmarked) [BJG-05-094, 2-(((2-((4-(4-(3-(2-(2-((2-(2,6-Dioxopiperidin-3-yl)-1,3-dioxoisoindolin-4-yl)amino)ethoxy)ethoxy)propanoyl)piperazin-1-yl)-3-(methylsulfonyl)phenyl)amino)-5-fluoropyrimidin-4-yl)(5-(hydroxymethyl)-2-methylphenyl)amino)methyl)benzonitrile]	
		0.0366 µM	Cc1ccc(CO)cc1N(Cc1ccccc1C#N)c1nc(Nc2ccc(N3CCN(CCOCCOCCOCCOCCNc4cccc5c4C(=O)N(C4CCC(=O)NC4=O)C5=O)CC3)c(S(C)(=O)=O)c2)ncc1F (centres unmarked) [BJG-05-095, 2-(((2-((4-(4-(14-((2-(2,6-Dioxopiperidin-3-yl)-1,3-dioxoisoindolin-4-yl)amino)-3,6,9,12-tetraoxatetradecyl)piperazin-1-yl)-3-(methylsulfonyl)phenyl)amino)-5-fluoropyrimidin-4-yl)(5-(hydroxymethyl)-2-methylphenyl)amino)methyl)benzonitrile]	
			CN1C(=O)CCC(N2C(=O)c3cccc(NCCCCCCCCNC(=O)N4CC[C@H](NC5=Nc6cc(F)ccc6N(CC(F)F)c6ccc(Cl)cc65)C4)c3C2=O)C1=O (stereo partly drawn) [BJG-05-098, (3S)-3-((2-Chloro-5-(2,2-difluoroethyl)-8-fluoro-5H-dibenzo[b,e][1,4]diazepin-11-yl)amino)-N-(8-((2-(J-methyl-2,6-dioxopiperidin-3-yl)-1,3-dioxoisoindolin-4-yl)amino)octyl)pyrrolidine-1-carboxamide]	Effect on cell proliferation (MCF7 cells): did not affect cell proliferation; Effect on cell proliferation (OVCAR3 cells): did not affect cell proliferation; PAK1 degradation (PAK1 [3]): PAK1 degradation was not observed; PAK2 degradation (PAK2 [4]): did not induce degradation of PAK1 or PAK2
			Nc1cccc2c1CN(C1CCC(=O)NC1=O)C2=O (centres unmarked) [lenalidomide, reference compound]	Effect on cell proliferation (MCF7 cells): lacked significant antiproliferative effects; Effect on cell proliferation (OVCAR3 cells): lacked significant antiproliferative effects

SMILES	IC50 (PAK4)	IC50 (PAK2 [1])	IC50 (PAK1 [2])	other results
CC(C)NC(=O)N1CC[C@H](NC2=Nc3cc(F)ccc3N(CC(F)F)c3ccc(Cl)cc32)C1 [NVS-PAK1-1, reference compound]	> 10 µM			EC50 (Hey A8 cells): 33.6 µM; EC50 (MCF7 cells; first statement of b311): 11.9 µM; EC50 (MCF7 cells; second listing of b311): 11.8 µM; EC50 (OMM1 cells): 12 µM; EC50 (OVCAR3 cells; first statement of b311): 3.68 µM; EC50 (OVCAR3 cells; second listing of b311): 8.9 µM; Half-life in rat liver microsomes [5]: short half-life; In vivo half-life [6]: short in vivo half-life
